{"source": "patent US20230141603A1", "about": "“BENZODIAZEPINE DERIVATIVES AS GABA A GAMMA1 PAM” (Hoffmann-La Roche Inc., priority 2021, published 2023)", "data": [{"biological_target": "T1, h-GABAA α5β2γ1 (Homo sapiens, UniProt P31644+Q8N1C3)", "T1 construct": "expressed in transfected cells; host or cells: HEK293F cells (ThermoFisher R79007), membranes", "T1 sequence (P31644 32-462)": "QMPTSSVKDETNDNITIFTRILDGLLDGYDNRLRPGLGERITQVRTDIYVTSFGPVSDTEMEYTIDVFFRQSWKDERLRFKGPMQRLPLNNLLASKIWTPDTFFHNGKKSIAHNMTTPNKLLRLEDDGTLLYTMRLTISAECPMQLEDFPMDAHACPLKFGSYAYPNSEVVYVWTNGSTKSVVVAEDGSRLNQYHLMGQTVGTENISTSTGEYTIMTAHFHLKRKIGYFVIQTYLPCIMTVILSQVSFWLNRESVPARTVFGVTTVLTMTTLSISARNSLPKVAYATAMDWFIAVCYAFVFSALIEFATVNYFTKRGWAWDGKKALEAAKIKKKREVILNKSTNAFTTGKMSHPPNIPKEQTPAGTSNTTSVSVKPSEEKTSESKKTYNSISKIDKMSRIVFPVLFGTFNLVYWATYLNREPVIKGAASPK", "T1 sequence (P47870 25-512 partner limits assumed)": "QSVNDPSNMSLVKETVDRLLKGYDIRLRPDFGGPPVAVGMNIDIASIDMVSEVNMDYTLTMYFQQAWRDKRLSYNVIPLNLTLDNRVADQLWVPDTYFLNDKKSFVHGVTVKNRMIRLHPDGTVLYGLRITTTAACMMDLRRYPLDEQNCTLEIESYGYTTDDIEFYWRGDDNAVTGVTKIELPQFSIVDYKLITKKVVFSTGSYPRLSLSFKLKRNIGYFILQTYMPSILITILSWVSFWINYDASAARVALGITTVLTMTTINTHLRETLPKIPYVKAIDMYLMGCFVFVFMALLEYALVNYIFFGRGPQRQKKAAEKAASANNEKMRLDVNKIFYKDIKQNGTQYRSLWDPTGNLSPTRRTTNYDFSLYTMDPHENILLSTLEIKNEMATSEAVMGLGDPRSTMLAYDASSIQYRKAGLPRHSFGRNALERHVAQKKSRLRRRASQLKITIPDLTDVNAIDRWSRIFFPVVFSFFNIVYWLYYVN", "T1 sequence (Q8N1C3 36-465)": "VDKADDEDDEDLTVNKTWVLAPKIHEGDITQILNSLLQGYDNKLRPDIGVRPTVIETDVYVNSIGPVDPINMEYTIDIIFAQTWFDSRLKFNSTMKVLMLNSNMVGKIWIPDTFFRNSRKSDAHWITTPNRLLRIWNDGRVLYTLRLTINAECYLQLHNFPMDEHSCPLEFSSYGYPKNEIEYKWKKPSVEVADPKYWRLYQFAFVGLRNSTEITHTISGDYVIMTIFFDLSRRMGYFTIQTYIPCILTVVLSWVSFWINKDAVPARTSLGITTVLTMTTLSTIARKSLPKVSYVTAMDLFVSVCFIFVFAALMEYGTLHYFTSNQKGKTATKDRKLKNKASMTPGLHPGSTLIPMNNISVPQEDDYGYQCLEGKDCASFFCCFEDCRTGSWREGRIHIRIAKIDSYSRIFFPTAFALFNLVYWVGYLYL", "assay": "Radioligand binding assay, [3H]RO7239181 competition, HEK293F membranes", "description": "The affinity of compounds at GABAA γ1 subunit-containing receptors was measured by competition for [^3H]RO7239181 (67.3 Ci/mmol; Roche) binding to membranes from HEK293F cells (ThermoFisher R79007) expressing human (transiently transfected) receptors of composition […], α2β2γ1, α1β2γ1. For better protein expression of the α2 subunit-containing receptors, the 28 amino acid long signal peptide (Met1 to Ala28) of the human GABAA α2 subunit was substituted by the 31 amino acid long signal peptide (Met1 to Ser31) of human GABAA α5 subunit.\nHarvested pellets from HEK293F cells expressing the different GABAA receptor subtypes were resuspended in Mannitol Buffer pH 7.2-7.4 (Mannitol 0.29M, Triethylamine 10 mM, Acetic acid 10 mM, EDTA 1 mM plus protease inhibitors (20 tablets Complete, Roche Diagnostics Cat. No. 05 056 489 001 per liter)), washed two times and then resuspended at 1:10 to 1:15 dilution in the same buffer. Cell disruption was performed by stirring the suspension in a Parr vessel #4637 at 435 psi for 15 minutes, and then the suspensions were centrifuged at 1000×g for 15 minutes at 4° C. (Beckman Avanti J-HC; rotor JS-4.2). The supernatant (S1) was transferred in a 21 Schott flask and the pellet (P1) was resuspended with Mannitol Buffer up to 175 ml. The resuspended pellet was transferred into a 250 ml Corning centrifugal beaker and centrifuged at 1500×g for 10 minutes at 4° C. (Beckman Avanti J-HC; rotor JS-4.2). The supernatant (S1) was then transferred in the 21 Schott flask and the pellet was discarded. The supernatants (S1) were centrifuged in 500 ml Beckman polypropylene centrifugal beaker at 15′000×g for 30 minutes at 4° C. (Beckman Avanti J-20 XP; rotor JLA-10.500). The pellet (P2) was resuspended with Mannitol Buffer 1:1 and frozen at −80° C. The supernatant (S2) was centrifuged in 100 ml Beckman polypropylene centrifugal tubes at 48000×g for 50 minutes at 4° C. (Beckman Avanti J-20 XP; rotor JA-18). The supernatant (S3) was discarded and the pellet (P3) was resuspended with 1:1 Mannitol Buffer. The P2 and P3 protein concentration was determined with the BIORAD Standard assay method with bovine serum albumin as standard and measured on the NANO-Drop 1000. The membrane suspension was aliquots (500 μl per tube) and stored at −80° C. until required. Membrane homogenates were resuspended and polytronised (Polytron PT1200E Kinematica AG) in Potassium Phosphate 10 mM, KCl 100 mM binding buffer at pH 7.4 to a final assay concentration determined with a previous experiment.\nRadioligand binding assays were carried out in a volume of 200 μL (96-well plates) which contained 100 μL of cell membranes, [^3H]RO7239181 at a concentration of 1.5 nM (α5β2γ1) or 20-30 nM (α1β2γ1, α2β2γ1) and the test compound in the range of [0.3-10000]×10^−9 M. Nonspecific binding was defined by 10×10^−6 (α5β2γ1) and 30×10^−6 M RO7235136 and typically represented less than 5% (α5β2γ1) and less than 20% (α1β2γ1, α2β2γ1) of the total binding. Assays were incubated to equilibrium for 1 hour at 4° C. and then, membranes were filtered onto unifilter (96-well white microplate with bonded GF/C filters preincubated 20-50 minutes in 0.3% Polyethylenimine) with a Filtermate 196 harvester (Packard BioScience) and washed 4 times with cold Potassium Phosphate 10 mM pH 7.4, KCl 100 mM binding buffer. After drying, filter-retained radioactivity was detected by liquid scintillation counting. Ki values were calculated using Excel-Fit (Microsoft) and are the means of two determinations.", "units": {"Ki": "nM"}, "values": [{"compound": "Fc1cccc(F)c1C1=NCc2nnc(-c3cccnn3)n2-c2ccc(Br)c(Br)c21", "note": "[Example 42, 7,8-dibromo-6-(2,6-difluorophenyl)-1-pyridazin-3-yl-4H-[1,2,4]triazolo[4,3-a][1,4]benzodiazepine]", "Ki": 0.9}, {"compound": "Fc1cccc(F)c1C1=NCc2nnc(-c3ccncn3)n2-c2ccc(Br)c(Br)c21", "note": "[Example 43, 7,8-dibromo-6-(2,6-difluorophenyl)-1-pyrimidin-4-yl-4H-[1,2,4]triazolo[4,3-a][1,4]benzodiazepine]", "Ki": 1.4}, {"compound": "Clc1cccnc1C1=NCc2nnc(-c3ccncn3)n2-c2ccc(Br)c(Cl)c21", "note": "[Example 44, 8-bromo-7-chloro-6-(3-chloro-2-pyridyl)-1-pyrimidin-4-yl-4H-[1,2,4]triazolo[4,3-a][1,4]benzodiazepine]", "Ki": 1.4}, {"compound": "Fc1cccnc1C1=NCc2nnc(-c3cccnn3)n2-c2ccc(Br)c(Cl)c21", "note": "[Example 45, 8-bromo-7-chloro-6-(3-fluoro-2-pyridyl)-1-pyridazin-3-yl-4H-[1,2,4]triazolo[4,3-a][1,4]benzodiazepine]", "Ki": 3}, {"compound": "Fc1cccnc1C1=NCc2nnc(-c3ccncn3)n2-c2ccc(Br)c(Cl)c21", "note": "[Example 46, 8-bromo-7-chloro-6-(3-fluoro-2-pyridyl)-1-pyrimidin-4-yl-4H-[1,2,4]triazolo[4,3-a][1,4]benzodiazepine]", "Ki": 3.9}, {"compound": "Clc1cccnc1C1=NCc2nnc(-c3cccnn3)n2-c2ccc(Br)c(Cl)c21", "note": "[Example 47, 8-bromo-7-chloro-6-(3-chloro-2-pyridyl)-1-pyridazin-3-yl-4H-[1,2,4]triazolo[4,3-a][1,4]benzodiazepine]", "Ki": 1.3}, {"compound": "Cc1ccc2c(c1Cl)C(c1c(F)cccc1F)=NCc1nnc(-c3cccnn3)n1-2", "note": "[Example 48, 7-chloro-6-(2,6-difluorophenyl)-8-methyl-1-pyridazin-3-yl-4H-[1,2,4]triazolo[4,3-a][1,4]benzodiazepine]", "Ki": 1.1}, {"compound": "Cc1ccc2c(c1Cl)C(c1c(F)cccc1F)=NCc1nnc(-c3ccncn3)n1-2", "note": "[Example 49, 7-chloro-6-(2,6-difluorophenyl)-8-methyl-1-pyrimidin-4-yl-4H-[1,2,4]triazolo[4,3-a][1,4]benzodiazepine]", "Ki": 1.7}, {"compound": "Cc1nnc2n1-c1ccc(Br)c(Cl)c1C(c1c(F)cccc1Cl)=NC2", "note": "[Example 50, 8-bromo-7-chloro-6-(2-chloro-6-fluoro-phenyl)-1-methyl-4H-[1,2,4]triazolo[4,3-a][1,4]benzodiazepine]", "Ki": 1}, {"compound": "Fc1cccnc1C1=NCc2nnc(-c3cccnn3)n2-c2ccc(Cl)c(Cl)c21", "note": "[Example 54, 7,8-dichloro-6-(3-fluoro-2-pyridyl)-1-pyridazin-3-yl-4H-[1,2,4]triazolo[4,3-a][1,4]benzodiazepine]", "Ki": 3.8}, {"compound": "Fc1cccnc1C1=NCc2nnc(-c3ccncn3)n2-c2ccc(Cl)c(Cl)c21", "note": "[Example 55, 7,8-dichloro-6-(3-fluoro-2-pyridyl)-1-pyrimidin-4-yl-4H-[1,2,4]triazolo[4,3-a][1,4]benzodiazepine]", "Ki": 5.5}, {"compound": "COc1ccc2c(c1Cl)C(c1c(F)cccc1F)=NCc1nnc(-c3cccnn3)n1-2", "note": "[Example 57, 7-chloro-6-(2,6-difluorophenyl)-8-methoxy-1-pyridazin-3-yl-4H-[1,2,4]triazolo[4,3-a][1,4]benzodiazepine]", "Ki": 4.6}, {"compound": "Cn1cc(-c2nnc3n2-c2ccc(Cl)c(Cl)c2C(c2ncccc2F)=NC3)cn1", "note": "[Example 58, 7,8-dichloro-6-(3-fluoro-2-pyridyl)-1-(1-methylpyrazol-4-yl)-4H-[1,2,4]triazolo[4,3-a][1,4]benzodiazepine]", "Ki": 3.6}, {"compound": "O=c1[nH]nc2n1-c1ccc(Cl)c(Cl)c1C(c1ncccc1F)=NC2", "note": "[Example 59, 7,8-dichloro-6-(3-fluoro-2-pyridyl)-2,4-dihydro-[1,2,4]triazolo[4,3-a][1,4]benzodiazepin-1-one]", "Ki": 5.9}, {"compound": "Fc1cccnc1C1=NCc2nncn2-c2ccc(Cl)c(Cl)c21", "note": "[Example 60, 7,8-dichloro-6-(3-fluoro-2-pyridyl)-4H-[1,2,4]triazolo[4,3-a][1,4]benzodiazepine]", "Ki": 7.5}]}]}
